Laboratory results from patent US6004982A, “4-piperidinyl) H-2-benzopyran derivatives useful as antipsychotic agents” (Hoechst Marion Roussel, Inc., priority 1998, dated 1999).
Where a name gives a salt, the structure may show the parent alone.

Molecular target: T1, human dopamine D2L receptor (Human D2Long Receptors) (Homo sapiens, UniProt P14416)
T1 construct: expressed in transfected cells
Experiment: Human dopamine D2L receptor binding assay ([3H]N-methyl spiroperidol displacement)
Details: not given
Procedure: A single high expressing clonal cell line was isolated and membranes from this cell line were used for receptor binding assays. […] The incubation buffer contained: 50 mM Tris, 120 mM NaCl; 5 mM Kcl; 2 mM CaCl2; 1 mM MgCl2; pH 7.7). […] Incubations were performed at 37° C. in a shaking water bath for 30 min, terminated by rapid filtration through Whatman GF/B filters (presoaked in 0.3% polyethyleneimine), and counted in a liquid scintillation counter. Non-specific binding was defined as that remaining in the presence of 3 μM eticlopride. […] The percent inhibition at each drug concentration was the average of duplicate determinations. […] Cheng-Prisoff determination (Ki's) are performed using Prism software.

T1 sequence (P14416 whole entry): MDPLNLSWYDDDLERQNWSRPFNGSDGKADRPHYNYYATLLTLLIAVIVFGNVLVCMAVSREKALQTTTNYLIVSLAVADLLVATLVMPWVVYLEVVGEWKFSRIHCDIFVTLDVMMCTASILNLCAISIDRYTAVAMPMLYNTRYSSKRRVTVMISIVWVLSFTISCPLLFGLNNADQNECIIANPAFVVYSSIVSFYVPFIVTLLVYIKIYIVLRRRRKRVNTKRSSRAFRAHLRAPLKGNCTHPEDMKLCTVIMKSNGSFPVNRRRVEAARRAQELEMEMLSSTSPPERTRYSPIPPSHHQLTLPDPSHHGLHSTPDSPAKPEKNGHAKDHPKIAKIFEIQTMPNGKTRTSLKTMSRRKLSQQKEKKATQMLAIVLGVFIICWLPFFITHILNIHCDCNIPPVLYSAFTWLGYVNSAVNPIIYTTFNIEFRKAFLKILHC

SMILES	Ki
O=CNC[C@@H]1O[C@H](C2CCN(CCc3cccs3)CC2)Cc2c1ccc1c2OC2(CCCCC2)O1 (relative stereo) [Example 24, cis-N-[5,6-(cyclohexylidinedioxy)-3,4-dihydro-3-[1(2-(thiophen-2-yl)ethyl)-4-piperidinyl]-1H-2-benzofuran-1-ylmethyl]formamide]	0.506 µM
COc1cc(C(C)=O)ccc1OCCCN1CCC([C@@H]2Cc3c(ccc4c3OC3(CCCCC3)O4)[C@H](CNC=O)O2)CC1 (relative stereo) [Example 30, cis-N-[3-[1-[3-(4-acetyl-2-methoxyphenoxy)propyl]-4-piperidinyl]-5,6-(cyclohexylidenedioxy)-3,4-dihydro-1H-2-benzopyran-1-ylmethyl]formamide oxalate Trihydrate]	0.857 µM

Same assay, conditions: Table 2; [3H]N-methyl spiroperidol 0.4 nM; CHO membranes; 37° C., 30 min; pH 7.7; read-out: Ki

SMILES	Ki
NC[C@@H]1O[C@H](C2CCN(CCOc3ccccc3)CC2)Cc2c1ccc(O)c2O (relative stereo) [Example 23, cis-1-(Aminomethyl)-3,4-dihydro-3-[1(2-phenoxyethyl)-4-piperidinyl]-1H-2-benzopyran-5,6-diol dihydrochloride 0.4 hydrate]	0.5 µM
CNC[C@@H]1O[C@H](C2CCN(CCc3ccc(Cl)cc3)CC2)Cc2c1ccc(O)c2O (relative stereo) [Example 15, cis-3-[1-[2-(4-Chlorophenyl)ethyl]-4-piperidinyl]-3,4-dihydro-1-(N-methylaminomethyl)-1H-2-benzopyran-5,6-diol dihydrochloride hemihydrate]	0.413 µM
COc1cc(C(C)=O)ccc1OCCCN1CCC([C@@H]2Cc3c(ccc(O)c3O)[C@H](CN)O2)CC1 (relative stereo) [Example 31, cis-1-(3-[3-[4-[1-(Aminomethyl)-3,4-dihydro-5,6-dihydroxy-1H-2-benzopyran-3-yl]-1-piperidinyl]propoxy]-3-methoxyphenyl)ethanone Dihydrochloride Dihydrate]	1.1 µM
NC[C@@H]1O[C@H](C2CCN(CCCn3c(=O)[nH]c4ccccc43)CC2)Cc2c1ccc(O)c2O (relative stereo) [Example 34, cis-1-[3-[4-(1-Aminomethyl-3,4-dihydro-5,6-dihydroxy-1H-2-benzopyran-3-yl)-1-piperidinyl]propyl]-1,3-dihydrobenzimidazol-2-one Dihydrochloride 1.33 Hydrate]	0.432 µM
NC[C@@H]1O[C@H](C2CCNCC2)Cc2c1ccc(O)c2O (relative stereo) [Example 33, cis-1-(Aminomethyl)-3,4-dihydro-3-(4-piperidinyl)-1H-2-benzopyran-5,6-diolDihydrochloride 0.3 Hydrate]	3.9 µM

Now from value to molecule:

Ki	SMILES
0.0918 µM	NC[C@@H]1O[C@H](C2CCN(CCCC(c3ccc(F)cc3)c3ccc(F)cc3)CC2)Cc2c1ccc(O)c2O (relative stereo) [Example 29, cis-1-(Aminomethyl)3-[1-[4,4-bis-(4-fluorophenyl)butyl]-4-piperidinyl]-1H-2-benzopyran-5,6-diol Dihydrochloride Dihydrate]
1.09 µM	NC[C@@H]1O[C@H](C2CCN(CCc3ccccc3)CC2)Cc2c1ccc(O)c2O (relative stereo) [Example 4D, cis-1-(Aminomethyl)-3,4-dihydro-3-[1-(2-phenylethyl)-4-piperidinyl]-1H-2-benzopyran-5,6-diol Dihydrobromide Sesquihydrate]
1.2 µM	COc1ccc(CCN2CCC([C@@H]3Cc4c(ccc(O)c4O)[C@H](CN)O3)CC2)cc1 (relative stereo) [Example 11, cis-1-(Aminomethyl)-3,4-dihydro-3-[1-[2-(4-methoxyphenyl)ethyl]-4-piperidinyl]-1H-2-benzopyran-5,6-diol Dihydrochloride]
0.505 µM	NC[C@@H]1O[C@H](C2CCN(CCc3ccc(Cl)cc3)CC2)Cc2c1ccc(O)c2O (relative stereo) [Example 14, cis-1-(Aminomethyl)-3-[1-[2-(4-chlorophenyl)ethyl]-3,4-dihydro-4-piperidinyl]-1H-2-benzopyran-5,6-diol dihydrochloride]
0.153 µM	NC[C@@H]1O[C@H](C2CCN(CCCC(c3ccc(F)cc3)c3ccc(F)cc3)CC2)Cc2c1ccc1c2OC2(CCCCC2)O1 (relative stereo) [Example 39, cis-1-Aminomethyl-5,6-(cyclohexylidenedioxy)-3,4-dihydro-3-[1-[4,4-bis(4-fluorophenyl)butyl]-4-piperidinyl]-1H-2-benzopyran Dioxalate 2.4 Hydrate]

Test system: apomorphine-induced climbing in CD-1 male mice
Experiment: Climbing mouse assay (CMA), antagonism of apomorphine-induced climbing
Assay type: in vivo
Details: ip, Table I, compounds of the invention, i.p. 30 min before apomorphine 1.5 mg/kg s.c.
Procedure: CLIMBING MOUSE ASSAY (CMA)
This test may be used as to identify compounds useful in treating psychosis. Costall, B. et al, Eur. J. Pharm. 50: 39-50 (1978); Protais, P., et al., Psychopharmacology 50:1-6 (1976). […] This effect of apomorphine is antagonized by the D2 receptor antagonist.
CD-1 male mice (20-30 grams) are assigned to groups of 8 and individually placed in wire mesh stick cages and allowed one hour for adaptation to new environment. Apomorphine is injected at 1.5 mg/kg subcutaneously which is a dose which causes climbing in all subjects for thirty minutes. Test compounds are administered intraperitoneally thirty minutes prior to the apomorphine administration at a dose of 20 mg/kg.
For evaluation of climbing, three readings are taken at ten, twenty and thirty minutes after apomorphine administration according to the following scale:
4 paws on bottom (no climbing) 0
2 paws on the wall (rearing) 1
4 paws on the wall (full climb) 2
The climbing scores are individually totaled (maximal score: 6 per mouse over three readings) and total score of the control (vehicle intraperitoneally (ip) and apomorphine subcutaneous) is set to 100%. ED50 values with 95% confidence limits calculated by a linear regression analysis of some of the compounds of the present invention as well as a standard antipsychotic agent (clozapine) are presented in Table 1.

SMILES	ED50
NC[C@@H]1O[C@H](C2CCN(CCc3ccccc3)CC2)Cc2c1ccc(O)c2O (relative stereo) [Example 4D, cis-1-(Aminomethyl)-3,4-dihydro-3-[1-(2-phenylethyl)-4-piperidinyl]-1H-2-benzopyran-5,6-diol Dihydrobromide Sesquihydrate]	8.1 mg/kg
